Series [1] addresses T1, Cytochrome P450 1B1 (Homo sapiens, UniProt Q16678).
T1 sequence (Q16678 whole entry): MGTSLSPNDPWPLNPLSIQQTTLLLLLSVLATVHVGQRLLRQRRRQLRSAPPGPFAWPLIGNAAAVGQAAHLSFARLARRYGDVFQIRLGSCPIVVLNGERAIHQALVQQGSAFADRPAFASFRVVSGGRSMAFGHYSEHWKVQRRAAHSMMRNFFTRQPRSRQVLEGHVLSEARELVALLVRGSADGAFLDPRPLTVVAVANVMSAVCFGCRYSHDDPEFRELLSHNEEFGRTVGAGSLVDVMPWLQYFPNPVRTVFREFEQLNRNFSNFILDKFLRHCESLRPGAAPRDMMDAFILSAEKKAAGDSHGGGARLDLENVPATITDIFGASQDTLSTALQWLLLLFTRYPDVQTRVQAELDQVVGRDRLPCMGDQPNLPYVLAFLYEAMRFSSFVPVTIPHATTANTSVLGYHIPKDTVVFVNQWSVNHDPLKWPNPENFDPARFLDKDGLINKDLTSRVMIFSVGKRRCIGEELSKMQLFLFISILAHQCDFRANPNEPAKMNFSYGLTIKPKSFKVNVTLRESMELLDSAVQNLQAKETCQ
Nature of the series: Inhibition of human recombinant CYP1B1 using 7-ethoxyresorufin as substrate in presence of glucose-6-phosphate, glucose-6-phosphate dehydrogenase and NADPH-generating system incubated for 35 mins by fluorometry.

Series [2] is filed under the species Homo sapiens. Nature of the series: Selectivity index, ratio of IC50 for human recombinant CYP1A1 to IC50 for human recombinant CYP1B1 using 7-ethoxyresorufin as substrate in presence of glucose-6-phosphate, glucose-6-phosphate dehydrogenase and NADPH-generating system by fluorometry.
Another series concerns the target T2, Cytochrome P450 1A1 (Homo sapiens, UniProt P04798).
T2 sequence (P04798 whole entry): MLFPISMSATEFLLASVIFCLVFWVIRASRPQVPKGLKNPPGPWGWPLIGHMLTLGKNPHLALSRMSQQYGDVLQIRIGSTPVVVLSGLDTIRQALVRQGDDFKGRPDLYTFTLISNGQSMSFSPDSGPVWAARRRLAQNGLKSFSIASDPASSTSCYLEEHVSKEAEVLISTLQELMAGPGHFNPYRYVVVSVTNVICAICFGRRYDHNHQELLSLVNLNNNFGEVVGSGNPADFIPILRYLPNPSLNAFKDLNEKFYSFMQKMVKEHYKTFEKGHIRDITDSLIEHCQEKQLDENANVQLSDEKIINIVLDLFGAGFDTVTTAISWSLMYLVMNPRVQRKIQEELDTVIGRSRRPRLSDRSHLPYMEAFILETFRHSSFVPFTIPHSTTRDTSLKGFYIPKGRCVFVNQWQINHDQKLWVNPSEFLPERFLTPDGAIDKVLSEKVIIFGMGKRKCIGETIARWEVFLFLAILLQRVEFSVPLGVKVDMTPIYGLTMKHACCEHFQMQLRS
Nature of the series: Inhibition of human recombinant CYP1A1 using 7-ethoxyresorufin as substrate in presence of glucose-6-phosphate, glucose-6-phosphate dehydrogenase and NADPH-generating system incubated for 15 mins by fluorometry. In kind it is ADME.

Another series addresses T3, Cytochrome P450 1A2 (Homo sapiens, UniProt P05177).
T3 sequence (P05177 whole entry): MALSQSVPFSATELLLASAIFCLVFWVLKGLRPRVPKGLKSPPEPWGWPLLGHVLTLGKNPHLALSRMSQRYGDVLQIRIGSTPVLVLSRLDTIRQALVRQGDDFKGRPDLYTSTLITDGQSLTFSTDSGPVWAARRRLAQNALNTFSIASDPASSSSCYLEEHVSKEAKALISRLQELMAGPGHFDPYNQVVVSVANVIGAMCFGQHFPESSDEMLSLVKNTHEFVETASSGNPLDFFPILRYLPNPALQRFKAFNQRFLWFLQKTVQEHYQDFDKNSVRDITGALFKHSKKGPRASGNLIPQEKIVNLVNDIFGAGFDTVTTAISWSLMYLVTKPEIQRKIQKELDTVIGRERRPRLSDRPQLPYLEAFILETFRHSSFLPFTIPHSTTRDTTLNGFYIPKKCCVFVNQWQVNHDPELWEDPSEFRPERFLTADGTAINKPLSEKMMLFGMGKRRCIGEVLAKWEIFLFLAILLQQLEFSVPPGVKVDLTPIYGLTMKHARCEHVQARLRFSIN
Briefly: Inhibition of human recombinant CYP1A2 using 7-ethoxyresorufin as substrate in presence of glucose-6-phosphate, glucose-6-phosphate dehydrogenase and NADPH-generating system incubated for 50 mins by fluorometry. Format: ADME.

In series [3] the target is T1, Cytochrome P450 1B1. Nature of the series: Potency index, ratio of IC50 for ANF to IC50 for test compound for inhibition of human recombinant CYP1B1 using 7-ethoxyresorufin as substrate in presence of glucose-6-phosphate, glucose-6-phosphate dehydrogenase and NADPH-generating system incubated for 35 mins by fluorometry. The note with it: for selectivity ratio at 35 min: read-out: Ratio IC50.

The species named for series [4] is Homo sapiens. Nature of the series: Selectivity index, ratio of IC50 for human recombinant CYP1A2 to IC50 for human recombinant CYP1B1 using 7-ethoxyresorufin as substrate in presence of glucose-6-phosphate, glucose-6-phosphate dehydrogenase and NADPH-generating system by fluorometry.
Series [5] can be described thus: Aqueous solubility of the compound. In kind it is physicochemical. The note with it: buffer.

The structures appear in SMILES notation.

For `O=c1cc(-c2cccc(Cl)c2)oc2c1ccc1ccccc12`, the IC50 on Cytochrome P450 1B1 [1] was determined as 0.00049 µM; at Cytochrome P450 1A1, 0.0052 µM; at Cytochrome P450 1A2 it was 0.0736 µM. The Ratio IC50 is 10.6 in the series filed under Homo sapiens [2] and 150 in the series filed under Homo sapiens [4]. For the same molecule, the relative potency vs ANF (IC50 ratio) at 35 min at Cytochrome P450 1B1 [3] amounted to 12.

As to `O=c1cc(-c2cccc(C(F)(F)F)c2)oc2c1ccc1ccccc12`, the IC50 was determined as 0.00052 µM at Cytochrome P450 1B1 [1], 0.0167 µM on Cytochrome P450 1A1 and 0.0942 µM on Cytochrome P450 1A2. Besides, the Ratio IC50 in the series filed under Homo sapiens [2] is 32.1; in the series listed under Homo sapiens [4] it was 181. The selectivity ratio at 35 min at Cytochrome P450 1B1 [3] stood at 11.3.

For `O=c1cc(-c2ccc(Cl)cc2)oc2c1ccc1ccccc12`, the IC50 stood at 0.0042 µM on Cytochrome P450 1B1 [1], 0.0043 µM at Cytochrome P450 1A1 and 0.0106 µM at Cytochrome P450 1A2. Besides, the results for the Ratio IC50 in the series listed under Homo sapiens [2] and in the series listed under Homo sapiens [4] were 1 and 2.5, respectively.

As for `CN(C)c1cccc(-c2cc(=O)c3ccc4ccccc4c3o2)c1`, the figures for the IC50 on Cytochrome P450 1B1 [1], on Cytochrome P450 1A1 and at Cytochrome P450 1A2 were 0.0041 µM, 0.0096 µM and 0.183 µM, respectively. Moreover, the Ratio IC50 was determined as 2.3 in the series filed under Homo sapiens [2] and 44.7 in the series listed under Homo sapiens [4].

As for `CN1CCN(c2ccc(-c3cc(=O)c4ccc5ccccc5c4o3)cc2)CC1`, the IC50 is 0.0638 µM on Cytochrome P450 1B1 [1], 0.153 µM at Cytochrome P450 1A1 and > 1 µM at Cytochrome P450 1A2. Also, the Ratio IC50 in the series listed under Homo sapiens [2] is 2.4. The solubility in series [5] was > 20 mg/mL.

Take `S=c1cc(-c2ccc(Cl)cc2)oc2c1ccc1ccccc12`: the concentration for half-maximal inhibition (IC50) at Cytochrome P450 1B1 [1] was 0.0016 µM; on Cytochrome P450 1A1, 0.0096 µM; on Cytochrome P450 1A2, 0.0532 µM. Also, the figures for the Ratio IC50 in the series filed under Homo sapiens [2] and in the series filed under Homo sapiens [4] were 6 and 33.3, respectively. Besides, the relative potency vs ANF (IC50 ratio) at 35 min on Cytochrome P450 1B1 [3] was 3.

With `CN1CCN(c2cccc(-c3cc(=O)c4ccc5ccccc5c4o3)c2)CC1`, the 50% inhibitory concentration (IC50) on Cytochrome P450 1B1 [1] amounted to 0.0246 µM; at Cytochrome P450 1A1 it was 0.0346 µM; on Cytochrome P450 1A2 it was 0.762 µM. In addition, the values for the Ratio IC50 in the series listed under Homo sapiens [2] and in the series listed under Homo sapiens [4] were 1.4 and 31, respectively.

As to `O=c1cc(-c2ccc(Cl)cc2)sc2c1ccc1ccccc12`, the IC50 at Cytochrome P450 1B1 [1] came out at 0.0519 µM; on Cytochrome P450 1A1 it was 0.009 µM; on Cytochrome P450 1A2 it was 0.212 µM. The Ratio IC50 in the series listed under Homo sapiens [2] was 0.2; in the series filed under Homo sapiens [4], 4.

Take `COc1cc(-c2cc(=O)c3ccc4ccccc4c3o2)cc(OC)c1OC`: the concentration for half-maximal inhibition (IC50) is 0.0051 µM on Cytochrome P450 1B1 [1], 0.003 µM on Cytochrome P450 1A1 and > 1 µM at Cytochrome P450 1A2. Besides, the Ratio IC50 in the series listed under Homo sapiens [2] is 0.6; in the series filed under Homo sapiens [4], > 196.

Take `O=c1cc(-c2ccc(F)cc2)oc2c1ccc1ccccc12`: the results for the half-inhibitory concentration (IC50) at Cytochrome P450 1B1 [1], on Cytochrome P450 1A1 and at Cytochrome P450 1A2 were 0.0027 µM, 0.0067 µM and 0.0121 µM, respectively. For the same molecule, the Ratio IC50 amounted to 2.5 in the series listed under Homo sapiens [2] and 4.5 in the series listed under Homo sapiens [4].

Turning to `O=c1cc(-c2cccc(N3CCOCC3)c2)oc2c1ccc1ccccc12`, the IC50 on Cytochrome P450 1B1 [1] was determined as 0.002 µM; on Cytochrome P450 1A1, 0.0309 µM; on Cytochrome P450 1A2 it was 0.318 µM. Besides, the values for the Ratio IC50 in the series listed under Homo sapiens [2] and in the series filed under Homo sapiens [4] were 15.5 and 159, respectively. Also, the selectivity ratio at 35 min at Cytochrome P450 1B1 [3] was determined as 3.

For `CN1CCN(c2cc(Cl)cc(-c3cc(=O)c4ccc5ccccc5c4o3)c2)CC1`, the figures for the IC50 at Cytochrome P450 1B1 [1], on Cytochrome P450 1A1 and at Cytochrome P450 1A2 were 0.0477 µM, 0.0379 µM and > 1 µM, respectively. Besides, in the series filed under Homo sapiens [2], the Ratio IC50 stood at 0.8. Moreover, at Cytochrome P450 1B1 [3], the selectivity ratio at 35 min is 0.12.

In the case of `Fc1cccc(-c2cc(=S)c3ccc4ccccc4c3o2)c1`, the figures for the IC50 on Cytochrome P450 1B1 [1], at Cytochrome P450 1A1 and on Cytochrome P450 1A2 were 0.005 µM, 0.0251 µM and 0.134 µM, respectively. Also, the Ratio IC50 in the series filed under Homo sapiens [2] came to 5; in the series listed under Homo sapiens [4], 26.8.

As a reminder, the IC50 is the concentration that gives 50% inhibition. By solubility is commonly meant the concentration that dissolves in the medium under given conditions. High values mean much dissolved substance, low ones little dissolved substance.

The values above are taken from ChEMBL document CHEMBL4376853, “Synthesis and structure-activity relationship studies of α-naphthoflavone derivatives as CYP1B1 inhibitors” (Eur J Med Chem, 2020).
